Results published in US20050267303A1, “Cyclic indole and heteroindole derivatives and methods for making and using as pharmaceuticals” (Zentaris AG, priority 2001, published 2005).

Columns and labels:
SK-OV-3 (HTB77) cells = test: XTT cytotoxicity (proliferation) test, SK-OV-3; assay type: cell-based; conditions: Homo sapiens, concentration 3.16 μg/mL, 45 h incubation, read-out: percentage inhibition SK-OV-3
Source text: (§1) The substances D-70260, D-70744, D-80815, D-80816 and D-80819 (Examples C2.3, D4, F2, F3 and F4) were investigated in a proliferation test (Scudiero, et al., Cancer Res., 48: 4827-33, 1987) using established tumor cell lines and their anti-proliferative activity was investigated. The test used determines the mitochondrial dehydrogenase activity and enables the cell vitality and, indirectly, the cell count to be determined. The cell lines used are the human cell lines HeLa/KB (CCL17), SK-OV-3 (HTB77), MCF-7 (HTB22) and the murine leukemia cell line L1210 (CCL219). These are very well characterized and established cell lines, which were obtained from ATCC and cultured.
(§2) XTT Test for Cellular Dehydrogenase Activity
(§3) The adherent, growing, tumor cell lines HeLa/KB, SK-OV-3, MCF-7, L1210 and RKO were cultured under standard conditions in an incubator with gas inlet at 37° C., 5% carbon dioxide and 95% relative humidity. On day 1 of the experiment, the cells were detached with trypsin/EDTA and palletized by centrifuging. Subsequently, the cell pellet is re-suspended in the respective culture medium in the appropriate cell count and transferred into a 96-well microtiter plate. The plates are then cultured overnight in the incubator with gas inlet. The test substances are used as a 10 mM stock solution in DMSO and diluted on the second day of the experiment with culture medium to the appropriate concentrations. The substances in the culture medium are then added to the cells and incubated for 45 hours in the incubator with gas inlet. The cells, which were not treated with test substances, were used as controls. For the XTT-Assay, 1 mg/mL of XTT (sodium 3′-[1-(phenylaminocarbonyl)-3,4-tetrazolium]-bis(4-methoxy-6-nitro) benzenesulfonic acid) in RPMI-1640 medium was dissolved without phenol red. Additionally, a 0.383 mg/mL PMS (N-methyl dibenzopyrazine methyl sulfate) solution in phosphate buffer cell solution (PBS) was prepared. On the fourth day of the experiment, 75 μL/well of XTT-PMS mixture was pipetted onto the cell plates, which had meanwhile been incubated for 45 hours with the test substances. For this purposes, the XTT solution is mixed with the PMS solution in a ratio of 50:1 (v: v) shortly before use. Subsequently the cell plates are incubated in the incubator with gas inlet for a further three hours and the optical density (OD490nm) is determined in a photometer.
(§4) The percentage inhibition relative to the control is calculated by means of the OD490nm, which has been determined, and the activity is plotted against the log of a concentration. The IC50 is calculated from the concentration-activity curve by means of a regression analysis using the Graphpad program.

[1] = system: murine leukemia cell line L1210 (CCL219); test: XTT cytotoxicity (proliferation) test, L1210; assay type: cell-based; conditions: Mus musculus, concentration 3.16 μg/mL, 45 h incubation, read-out: percentage inhibition L1210
Source text: as §1, §2, §3, §4

HeLa/KB (CCL17) cells = test: XTT cytotoxicity (proliferation) test, HeLa/KB; assay type: cell-based, human; conditions: for anti-proliferative effect (summary in words of Table 1): 3.16 μg/mL, over cell lines HeLa/KB, SK-OV-3, MCF-7, L1210; for percentage inhibition KB/HeLa: concentration 3.16 μg/mL, 45 h incubation
Source text: as §1, §2, §3, §4

MCF-7 (HTB22) cells = test: XTT cytotoxicity (proliferation) test, MCF-7; assay type: cell-based; conditions: Homo sapiens, MCF7, concentration 3.16 μg/mL, 45 h incubation, read-out: percentage inhibition MCF-7
Source text: as §1, §2, §3, §4

[2] = system: HeLa/KB cells in hollow fibers; test: Hollow fiber model in vivo (nude mouse), HeLa/KB; parameters: species or system human
Protocol: (§5) In order to determine the availability and effectiveness in the animal model (nude mouse), the cell lines HeLa/KB, MCF-7 and L1210 were cultured in hollow fibers, which are implanted i.p. or s.c. (Hollingshead et al., Life Sciences 57, 131-41, 1995). The test substance D-80816 is administered four times […]. in a dose of 100 mg/kg. At the end of the therapy on day 5, the fibers are explanted and the cell vitality of the tumor cells obtained is determined by means of the XTT assay. For D-80816, there is a maximum inhibition of 100% for all the cell lines and implantation cites and a general toxicity of LD50>1000 mg/kg (i.p.).
(§6) Determination of the Anti-Proliferative Activity in the Hollow Fiber Model in vivo
(§7) The tumor cells lines HeLa/KB, MCF-7 and L1210 are added to polyvinylidene fluoride hollow fibers (5×10^6 cells/mL) and transplanted into the physiological compartments of the nude mouse (intraperitoneally, i.p., or subcutaneously, s.c.). A total of six hollow fibers (3 i.p. and 3 s.c.) with the respective tumor cell lines is transplanted into each experimental animal. One group of six animals is treated with the test substance (i.p. once daily for a total of 4 days) (ok?). The animals, which have been treated only with the solvent tylose, acted as control. The hollow fibers are explanted one day after the last application of substance. The proportion of metabolism-active, vital cells is determined for each hollow fiber by means of the XTT assay (see above). From this, the anti-tumor activity of the test substance is determined as the percent inhibition relative to the control.

[3] = system: L1210 cells in hollow fibers; test: Hollow fiber model in vivo (nude mouse), L1210; parameters: species or system murine; conditions: dose 4 × 100 mg/kg i.p., explanted day 5
Protocol: as §5, §6
as §7, with “One group of six animals is treated with the test substance (i.p. once daily for a total of 4 days) (ok?). The animals, which have been treated only with the solvent tylose, acted as control. The hollow fibers are explanted one day after the last application of substance.” left out

[4] = General toxicity LD50 (i.p.); conditions: nude, mouse, in vivo, ip, read-out: LD 50 (general toxicity)
Protocol: as §5

[5] = system: RKOp27 cells (RKO colon carcinoma line with inducible p27Kip1); test: Cell cycle analysis in the RKOp27 model (XTT readout); assay type: cell-based, human
Source text: The RKO is a human, colon carcinoma line, in which the cell cycle inhibitor p27^KiPI is induced to express by means of the Ecdyson expression system and leads to a cell cycle arrest specifically in GI (FIG. 2). A substance with non-specific activity inhibits the proliferation independently of whether the RKO cell in GI is arrested or not. On the other hand, cell cycle-specific substances, such as tubulin inhibitors, are cytotoxic only when the cells are not arrested and the cells pass through the cycle. […] Therefore, a defined, molecular, activity mechanism of D-80816 and its derivatives must be assumed. [drawing] [drawing]
Cell Cycle Analysis by Means of the RKOp27 Model
The assay is carried out in 96-well plates. The growth of the cells is arrested completely by the expression of p27^kiP1, which can be induced. […] By comparing the effectiveness of induced and not-induced cells, conclusions can be drawn concerning the mechanism of action (cell cycle specificity) of the therapeutic agents. Cells, which have […], were disseminated in an approximately 4 times higher cell count than uninduced cells, since there no longer is a division during the assay (2×10^4 cells/well induced, about 0.6×10^4 cells/well not induced). The controls are untreated cells (+/−induction). The induction is carried out with 3 μM of muristerone A. The cells are exposed on the first day (+/−muristerone A) and incubated for 24 hours at 37° C. The test substance is added on the second day (control DMSO) and the incubation is continued for a further 48 hours at 37° C., before the standard XTT assay is carried out (see above).

[6] = system: MCF-7 cells in hollow fibers; test: Hollow fiber model in vivo (nude mouse), MCF-7; parameters: species or system human; conditions: dose 4 × 100 mg/kg i.p., explanted day 5
Protocol: as §5, §6
as §7, with “One group of six animals is treated with the test substance (i.p. once daily for a total of 4 days) (ok?). The animals, which have been treated only with the solvent tylose, acted as control. The hollow fibers are explanted one day after the last application of substance.” left out

SMILES | inhibition at 3.16 µg/mL (SK-OV-3 (HTB77) cells) [%] | inhibition at 3.16 µg/mL [1] [%] | anti-proliferative effect (summary in words of Table 1) (HeLa/KB (CCL17) cells) | percentage inhibition KB/HeLa (HeLa/KB (CCL17) cells) [%] | inhibition at 3.16 µg/mL (MCF-7 (HTB22) cells) [%] | melting point [°C] | also measured
COc1ccc2c(c1)cc1c(-c3ccccc3)noc(=O)n12 [Example C2.3, 3-phenyl-1,2,5-oxadiazino[4,5α](5-methoxyindole)-6-one] | 68.9 | 91.3 | very potent anti-proliferative effect | 90.7 | 4.1 | 198 to 200 | –
COc1cccc(-c2noc(=O)n3c2cc2cc(OC)ccc23)c1 [Example D3, 3-(3-methoxyphenyl)-1,2,5-oxadiazino[4,5α](5-methoxyindole)-6-one] | – | – | – | – | – | 171 to 173 | –
COc1ccc2c(c1)cc1c(C)noc(=O)n12 [Example C2.1, 3-methyl-1,2,5-oxadiazino[4,5-α](5-methoxyindole)-6-one] | – | – | – | – | – | 217 to 220 | –
COc1ccccc1-c1noc(=O)n2c1cc1ccccc12 [Example D1, 3-(2-methoxyphenyl)-1,2,5-oxadiazino[4,5α]indole-6-one] | – | – | – | – | – | 160 to 162 | –
COc1ccc(C2=C(c3ccc(F)cc3)C(=O)n3c2cc2cc(OC)ccc23)cc1 [Example F4, 2-(4-florophenyl)-6-methoxy-1-(4-methoxyphenyl)-3a-aza-cyclopenta[a]indene-3-one] | 6.6 | 21.8 | do not show a significant effect | 0 | 0 | 157 to 160 | –
COc1ccc2c(c1)cc1c(-c3ccc(Cl)cc3)noc(=O)n12 [Example D4, 3-(4-chlorophenyl)-1,2,5-oxadiazino[4,5α](5-methoxyindole)-6-one] | 55.2 | 77.1 | very potent anti-proliferative effect | 74.6 | 1.9 | 227 to 230 | –
COc1cccc(C2=C(c3ccccc3)C(=O)n3c2cc2cc(OC)ccc23)c1 [Example F2, 6-methoxy-1-(3-methoxyphenyl)-2-phenyl-3a-aza-cyclopenta[a]indene-3-one] | 0 | 0 | do not show a significant effect | 1.7 | 8.1 | 111 to 113 | –
COc1cccc(C2=C(c3cccc(OC)c3)c3cc4cc(OC)ccc4n3C2=O)c1 [Example F3, 6-methoxy-1,2-bis-(3-methoxyphenyl)-3a-aza-cyclopenta[a]indene-3-one] | 66.1 | 94.7 | very potent anti-proliferative effect | 91.7 | 18.2 | – | maximum inhibition in hollow fiber model ([2]; all the cell lines (HeLa/KB, MCF-7, L1210) and implantation sites (i.p., s.c.), 4 × 100 mg/kg): 100%; Proliferation Inhibition in hollow Fibers, KB (i.p.) ([2]; fibers implanted i.p., dose 4 × 100 mg/kg i.p., explanted day 5): 100%; Proliferation Inhibition in hollow Fibers, KB (s.c.) ([2]; fibers implanted s.c., dose 4 × 100 mg/kg i.p., explanted day 5): 100%; Proliferation Inhibition in hollow Fibers, L1210 (i.p.) ([3]; fibers implanted i.p.): 100%; Proliferation Inhibition in hollow Fibers, L1210 (s.c.) ([3]; fibers implanted s.c.): 100%; LD50 [4]: > 1000 mg/kg; LD50 at 5 days [4]: > 100 mg/kg; anti-proliferative effect in cells arrested in G1 ([5]; RKOp27 cells induced with 3 μM muristerone A (p27 expression, G1 arrest), 48 h, XTT): cannot be measured; anti-proliferative effect in cells not induced ([5]; RKOp27 cells not induced, 48 h, XTT): concentration-dependent anti-proliferative effect; cell cycle-specific activity ([5]; comparison of induced (G1-arrested) and not induced RKOp27 cells): cell cycle-specific activity; Proliferation Inhibition in hollow Fibers, MCF7 (i.p.) ([6]; fibers implanted i.p.): 100%; Proliferation Inhibition in hollow Fibers, MCF7 (s.c.) ([6]; fibers implanted s.c.): 100%
CCc1noc(=O)n2c1cc1cc(OC)ccc12 [Example C2.2, 3-ethyl-1,2,5-oxadiazino[4,5-α](5-methoxyindole)-6-one] | – | – | – | – | – | 208 to 212 | –
COc1cccc(-c2noc(=O)n3c2cc2ccccc23)c1 [Example D2, 3-(3-methoxyphenyl)-1,2,5-oxadiazino[4,5α]indole-6-one] | – | – | – | – | – | 129 to 130 | –
COc1ccc2c(c1)cc1n2C(=O)C(c2ccccc2)=C1c1ccc(Cl)cc1 [Example F1, 1-(4-chlorophenyl)-6-methoxy-2-phenyl-3a-aza-cyclopenta[a]indene-3-one] | – | – | – | – | – | 152 to 155 | –
COc1ccc2c(c1)cc1c(-c3ccc(Cl)cc3)nn(-c3ccccc3)c(=O)n12 | – | – | – | – | – | 155 to 158 | –
